Results on one compound are retold here after PMC6934184, “Selective DNA-PKcs inhibition extends the therapeutic index of localized radiotherapy and chemotherapy” (The Journal of Clinical Investigation, 2019).

The assay concerns the target T1, PRKD1 (PKC mu) (Homo sapiens, UniProt Q15139).
T1 construct: purchased Thermo Fisher Scientific (Life Technologies) SelectScreen
Put plainly: SelectScreen Z'LYTE. In kind it is biochemical. The method, boiled down: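 Percent values come from Thermo SelectScreen profiling of NU5455, combining activity and binding assays. CSF1R was run in Z'LYTE format at Km app ATP, and CAMK1 in Adapta format with ATP listed at 10.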

T1 sequence (Q15139 whole entry): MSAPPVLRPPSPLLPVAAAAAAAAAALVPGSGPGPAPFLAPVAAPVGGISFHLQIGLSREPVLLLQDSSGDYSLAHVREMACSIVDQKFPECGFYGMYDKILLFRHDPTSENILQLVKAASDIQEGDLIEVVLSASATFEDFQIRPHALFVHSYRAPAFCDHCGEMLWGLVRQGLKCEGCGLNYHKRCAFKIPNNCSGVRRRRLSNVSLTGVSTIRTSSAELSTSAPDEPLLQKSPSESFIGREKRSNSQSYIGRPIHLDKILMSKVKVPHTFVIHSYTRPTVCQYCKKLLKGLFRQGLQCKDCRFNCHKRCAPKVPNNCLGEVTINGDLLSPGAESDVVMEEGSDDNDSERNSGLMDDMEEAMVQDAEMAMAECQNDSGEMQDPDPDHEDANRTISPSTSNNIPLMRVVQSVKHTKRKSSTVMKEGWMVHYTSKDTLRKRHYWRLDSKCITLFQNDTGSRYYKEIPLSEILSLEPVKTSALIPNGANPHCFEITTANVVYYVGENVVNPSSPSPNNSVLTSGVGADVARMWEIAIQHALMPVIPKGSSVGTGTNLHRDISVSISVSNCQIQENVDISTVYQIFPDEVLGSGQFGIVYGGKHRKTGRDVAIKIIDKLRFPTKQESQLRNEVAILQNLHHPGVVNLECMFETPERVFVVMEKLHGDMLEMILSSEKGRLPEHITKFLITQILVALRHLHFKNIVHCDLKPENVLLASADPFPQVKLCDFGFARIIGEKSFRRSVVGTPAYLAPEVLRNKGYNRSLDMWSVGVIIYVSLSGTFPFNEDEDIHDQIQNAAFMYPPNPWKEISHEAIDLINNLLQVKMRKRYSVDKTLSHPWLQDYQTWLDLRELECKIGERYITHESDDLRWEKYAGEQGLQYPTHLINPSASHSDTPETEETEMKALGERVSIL

With `CN(C(=O)CN1CCOCC1)c1ccc2sc3c(-c4cccc5c(=O)cc(N6CC7CCC(C6)O7)oc45)cccc3c2c1` [NU5455], the inhibition at 1 µM was -8.5%.

The inhibition is the relative decrease from the control value, in per cent.
